Source: patent US20090304654A1, “METHODS FOR ISOLATING ADIPOSE-DERIVED STEM CELLS AND THERAPEUTIC USE THEREOF” (REGENTS OF THE UNIVERSITY OF CALIFORNIA, priority 2008, published 2009)

Tested on: RADSC-1 cells
Experiment: Endothelial-inducing factors: LDL-uptake and endothelial markers of ADSC in subtraction/addition media and with FGFR inhibitor
Format: cell-based, rat
Settings: for LDL-uptake ability on omission of the factor from EGM2: one week in subtraction EGM2; for LDL-uptake ability in EBM2 supplemented with the factor: one week in addition media
Method: RADSC-1 cells were grown in fully or partially supplemented EGM2 and then assayed for LDL-uptake. Each partially supplemented EGM2 is indicated by the omitted factor; for example, “−FGF” denotes EGM2 without FGF2. Experiments were repeated 3 times.
RADSC-1 cells were grown in EGM2, EBM2, or EBM2 supplemented with the indicated factor, and then assayed for LDL-uptake. Experiments were repeated 3 times.
RADSC-1 cells were grown in EGM2 or EBM2 supplemented with FGF2 and vitamin C in the presence or absence of FGFR inhibitor PD173074. The cells were then assayed for LDL-uptake. Red color indicates the presence of LDL, which was in a conjugated form with the red fluorescence dye DiI. RADSC-1 cells were also grown in VEGF/vitamin C-supplemented EBM2 for the purpose of excluding the involvement of VEGF signaling, as PD173074 is known to have a weak inhibitory effect on VEGF receptor. Experiments were repeated 3 times.
EGM2 medium is supplied by the manufacturer in the form of a basal medium (EBM2) and individual vials of supplemental factors. […] Specifically, we prepared “subtraction” EGM2 media by omitting one supplemental factor at a time.
The above experiments identified FGF2 as the only growth factor required for the induction of ADSC's LDL-uptake ability. We then tested whether FGF2 was able to induce the expression of additional endothelial characteristics. RADSC-1 cells were grown in DMEM, EGM2, or EBM2 supplemented with FGF2 and vitamin C. They were then stained for endothelial markers CD31, vWF, and eNOS, and tested for tube formation.
In the absence of PD173074 (with the addition of solvent only), cells grown in either the completely supplemented EGM2 or the FGF2/vitamin C-supplemented EBM2 acquired the LDL-uptake ability (FIG. 23).

Molecule	acquisition of LDL-uptake ability in the presence of inhibitor (cells in EGM2 or FGF2/vitamin C-supplemented EBM2)	LDL-uptake ability on omission of the factor from EGM2	LDL-uptake ability in EBM2 supplemented with the factor
CCN(CC)CCCCNc1ncc2cc(-c3cc(OC)cc(OC)c3)c(NC(=O)NC(C)(C)C)nc2n1 [PD173074]	unable to do so	–	–
C[C@]12CCC(=O)C=C1CC[C@@H]1[C@@H]2[C@@H](O)C[C@@]2(C)[C@H]1CC[C@]2(O)C(=O)CO [hydrocortisone]	–	essentially no effect	–
O=C1O[C@H]([C@@H](O)CO)C(O)=C1O [vitamin C]	–	greatly diminished LDL-uptake ability	still somewhat effective, but at a much reduced level
EGF: epidermal growth factor, supplement of EGM2 (NSDSECPLSHDGYCLHDGVCMYIEALDKYACNCVVGYIGERCQYRDLKWWELR; UniProt P01133 971-1023, looked up)	–	essentially no effect	–
FGF2: growth factor supplement of EGM2	–	greatly diminished LDL-uptake ability	still effective, albeit at a reduced level
VEGF	–	essentially no effect	–
heparin	–	essentially no effect	–
